According to US8889699B2, “5-fluorouracil derivative” (Delta-Fly Pharma, Inc., priority 2009, dated 2014):
Where two headings read alike, the source gives them in different places.

What was measured:
[1] = tested on: human gastric cancer strain (SC-2); conditions: 14 days, day 15, Test Example 3
Method: The resulting product was stirred with a stirrer at room temperature for about 10 minutes. […] Thereafter, ultrasonic treatment was performed under ice cooling for about 5 minutes, thereby obtaining a BOF-A2 drug liquid to be used at a dose of 14 mg/kg/day, 21 mg/kg/day, or 28 mg/kg/day. • (f) Experiment: The human gastric cancer strain (SC-2) was subcutaneously transplanted into the back of a BALB/cA-nu mouse and preliminarily proliferated therein. The proliferated strain was extracted, cut into about 2 mm square pieces with scissors in physiological saline, and subcutaneously inoculated to the right axillary region of mice of the same strain, 5 to 6 weeks of age, using a transplantation needle. […] Then, drug administration was initiated from the next day. Each of the test liquids shown in (a) to (e) above was administered orally to the mice in each of the test drug groups using a sonde for oral administration at a dose of 0.1 ml per 10 g body weight once a day for 14 continuous days. In the same manner as the above, the cancer-bearing mice in the control group were subjected to oral administration of only 0.5% HPMC liquid for 14 continuous days.
The tumor volume of each mouse in each group before the initiation of the treatment, on day 3, day 5, day 8 (1 week after), day 11, and day 15 (2 weeks after), i.e., after termination of the administration, was calculated using Equation 1 below, and respective relative tumor volume (RTV) relative to the tumor volume at the time of initiation of the treatment was calculated. In relation to the antitumor effect, the average value of the tumor proliferation inhibition ratio (IR; %) was calculated from the average tumor volume of each treatment group on day 15 (after termination of the treatment) relative to that of the control group on day 15, using Equation 2. […] Along therewith, a weight change ratio was calculated from the body weight of the mice at the time of the termination of the drug administration relative to the body weight of the mice at the time of the initiation of the administration, using Equation 3. […] Tumor volume(mm^3)=(major axis)×(minor axis)^2×½ Equation 1: Tumor proliferation inhibition ratio(IR, %)=[1−(average tumor volume of treatment group)/(average tumor volume of control group)]×100 Equation 2: Average weight change ratio(%)=[(average weight on Day 15)−(average weight on Day 1)]/(average weight on Day 1)×100 Equation 3: […]
The resulting product was stirred with a stirrer at room temperature for about 10 minutes. […] The proliferated strain was extracted, cut into about 2 mm square pieces with scissors in physiological saline, and subcutaneously inoculated to the right axillary region of mice of the same strain, 5 to 6 weeks of age, using a transplantation needle. […] Then, drug administration was initiated from the next day. Each of the test liquids shown in (a) to (c) above was administered orally to the mice in each of the test drug groups using a sonde for oral administration at a dose of 0.1 ml per 10 g body weight once a day for 14 continuous days. In the same manner as the above, the cancer-bearing mice in the control group were subjected to oral administration of only 0.5% HPMC liquid for 14 continuous days.
The tumor volume of each mouse in each group before the initiation of the treatment, on day 3, day 5, day 8 (1 week after), day 11, and day 15 (2 weeks after), i.e., after termination of the administration, was calculated using Equation 1 below, and respective relative tumor volume (RTV) relative to the tumor volume at the time of initiation of the treatment was calculated. In relation to the antitumor effect, the average value of the tumor proliferation inhibition ratio (IR; %) was calculated from the average tumor volume of each treatment group on day 15 (after termination of the treatment) relative to that of the control group on day 15, using Equation 2.

[2] = tested on: sarcoma 180 cells; experiment: Inhibition of intracellular phosphorylation of 5-FU in cancer cells; type: cell-based, mouse; conditions: for inhibition at 10 µM / inhibition at 100 µM: Mus musculus, Sarcoma-180, 0.5 h
Method: (§1) • (a) Test liquid preparation 1: Compound I-2 or I-10 of the present invention was dissolved to a concentration of 1 mM in cold physiological saline. The resulting product was further diluted 10-fold with physiological saline, yielding a 100-μM solution. • (b) Test liquid preparation 2: As an OPRT inhibitor, which inhibits the phosphorylation of 5-FU, citrazinic acid (Citra.A.) was dissolved to a concentration of 1 mM in cold physiological saline, and further diluted 10-fold with physiological saline, yielding a 100-μM solution. • (c) Preparation of cancer cell suspension: Ascites-type sarcoma 180 cells were preliminarily transplanted intraperitoneally into an ICR mouse and proliferated therein for use in the test as raw (intact) cells. The proliferated cells were isolated and then washed with physiological saline. […] Immediately after the completion of the reaction, 4 mL of a cold Hanks solution was added to the reaction solution, and the cells were washed and separated by centrifugation. After this procedure was repeated twice, 2 mL of a cold 5% trichloroacetic acid (TCA) solution was added to the cell pellet to disrupt the cells, and 5-FU and its nucleotide metabolites were extracted. Subsequently, a portion of the nucleic acid extract was applied to a silica gel 60F254 plate and developed with a mixed liquid comprising chloroform-methanol-acetic acid (17:3:1) to isolate the nucleotide moiety. The radioactivity thereof was measured and the concentration of 5-FU phosphorylation was measured.
as §1, with “1: Compounds I-9, I-11, I-12, and I-13” for “1: Compound I-2 or I-10”, “invention were separately” for “invention was”, “saline. Each of the” for “saline. The”, “resulting products” for “resulting product”, “acid” for “acid (Citra.A.)”

[3] = Conc. 10 μM, 30 min. Incubation, 5-FU 2 μM, Table 6
[4] = Conc. 100 μM, 30 min. Incubation, 5-FU 2 μM, Table 6
[5] = Conc. 10 μM, 30 min. Incubation, 5-FU 2 μM, Table 6, read-out: Inhibition (%) of phosphorylation of 5-FU
[6] = Conc. 100 μM, 30 min. Incubation, 5-FU 2 μM, Table 6, read-out: Inhibition (%) of phosphorylation of 5-FU
[7] = concentration of 10 μM, reaction for 30 minutes, read-out: percent inhibition of intracellular phosphorylation of 5-FU
[8] = concentration of 100 μM, reaction for 30 minutes, read-out: percent inhibition of intracellular phosphorylation of 5-FU

| SMILES | RNA Fraction [2, 3] [pmol/1 × 10^7 cells] | RNA Fraction [2, 4] [pmol/1 × 10^7 cells] | inhibition at 10 µM [2, 5] [%] | inhibition at 100 µM [2, 6] [%] | inhibition at 10 µM [2, 7] [%] | inhibition at 100 µM [2, 8] [%] | other results |
| --- | --- | --- | --- | --- | --- | --- | --- |
| CCOCn1cc(F)c(=O)n(C(=O)c2cccc(C(=O)Oc3nc(OC(=O)c4ccccc4)ccc3C#N)c2)c1=O [BOF-A2, reference compound] | – | – | – | – | – | – | Average weight change (%) ([1]; 14 mg/kg/day oral): 3.16%; Tumor proliferation inhibition ratio (%) ([1]; 14 mg/kg/day oral): 51.0%; Average weight change (%) ([1]; 21 mg/kg/day oral): −7.48%; Tumor proliferation inhibition ratio (%) ([1]; 21 mg/kg/day oral): 70.9%; Average weight change (%) ([1]; 28 mg/kg/day oral): −20.58%; Tumor proliferation inhibition ratio (%) ([1]; 28 mg/kg/day oral): 72.4% |
| CCOCn1cc(F)c(=O)n(C(=O)c2cccc(C(=O)Oc3cc(O)c(Cl)cn3)c2)c1=O [Compound 8a, 3-{3-[4-hydroxy-5-chloro-2-pyridyloxycarbonyl]benzoyl}-1-ethoxymethyl-5-fluorouracil] | – | – | – | – | – | – | Average weight change (%) ([1]; 11.5 mg/kg/day oral): 0.34%; Tumor proliferation inhibition ratio (%) ([1]; 11.5 mg/kg/day oral): 52.8%; Average weight change (%) ([1]; 17.3 mg/kg/day oral): 2.32%; Tumor proliferation inhibition ratio (%) ([1]; 17.3 mg/kg/day oral): 58.1%; Average weight change (%) ([1]; 23.0 mg/kg/day oral): −18.11%; Tumor proliferation inhibition ratio (%) ([1]; 23.0 mg/kg/day oral): 77.7% |
| CCOCn1cc(F)c(=O)n(C(=O)c2cccc(C(=O)Oc3cc(OC(=O)c4cc(OC(=O)C(C)(C)C)nc(OC(=O)C(C)(C)C)c4)c(Cl)cn3)c2)c1=O [Compound I-12, 3-{3-[4-(2,6-dipivaloyloxyisonicotinoyloxy)-5-chloro-2-pyridyloxycarbonyl]benzoyl}-1-ethoxymethyl-5-fluorouracil] | 28.15 | 25.48 | 55.5 | 59.8 | 35 to 57 | 56 to 63 | – |
| CCOCn1cc(F)c(=O)n(C(=O)c2cccc(C(=O)Oc3cc(OC(=O)c4ccc(OC(=O)c5ccccc5)nc4OC(=O)c4ccccc4)c(Cl)cn3)c2)c1=O [Compound I-13, 3-{3-[4-(2,6-dibenzoyloxynicotinoyloxy)-5-chloro-2-pyridyloxycarbonyl]benzoyl}-1-ethoxymethyl-5-fluorouracil] | 26.63 | 25.68 | 58.1 | 59.4 | 35 to 57 | 56 to 63 | – |
